{"source": "paper PMC10269561", "about": "“Absence of Clinically Meaningful Drug-Drug Interactions with Rezafungin: Outcome of Investigations” (Microbiology Spectrum, 2023)", "key": {"[1]": {"test": "Study 1 safety and tolerability (TEAEs)", "assay_type": "in vivo, human", "experimental": "After screening, subjects were admitted to the clinical research unit (CRU) prior to the first dose of rezafungin (from day −22) and were discharged from the CRU on day 22. Nine oral substrate drugs were administered as part of a cocktail containing two or more drugs once before and once after receiving rezafungin on a schedule designed to allow the washout of the drugs in the cocktail between doses and limit interactions with other drugs (Fig. 4A). […] A loading dose of rezafungin for injection (600 mg) was administered over 1 h on day 1, followed by two once-weekly 400-mg doses over 1 h on days 10 and 15. Due to a short delay in the availability of the investigation study drug, the second once-weekly dose of rezafungin and the second set of oral substrate drugs were administered on day 10 instead of day 8, although the time between doses remained sufficient for all originally planned PK samplings through 96 h postdose and for the adequate washout of the substrate drugs. The total duration of treatment was up to 89 days, including 45 days of screening and 44 days of treatment in the CRU.\n(§1) Microbiology Spectrum Supplementary materials\nTable S 2Summary of t reatment-emergent adverse e vents for Study 1\nSystem Organ Class Safety Population Adverse Event Severity(N=26), n Rezafungin Safety Population (N=26), n\nAdverse Event Mild Moderate Severe Mild Moderate Severe […]"}, "[2]": {"test": "Study 2 safety and tolerability (TEAEs)", "experimental": "After screening, subjects were admitted to the CRU on day −17 (prior to the first rezafungin dose) and were discharged on day 22. Rezafungin was dosed via i.v. infusion over 1 h at 400 mg on day 1 and 200 mg on day 8 and day 15. The oral drugs to be tested for interactions were each administered twice on a schedule designed to allow washout between doses: once alone and once while receiving rezafungin (Fig. 4B). The total duration of treatment was approximately 84 days, which included 45 days of screening and 39 days of treatment in the CRU.\nIn both studies, the safety population included all subjects who received any amount of the study drug. In study 1, the rezafungin safety population included all subjects who received any amount of rezafungin. Safety assessments included vital signs (temperature, heart rate, blood pressure, and respiratory rate), safety laboratory evaluations (hematology assessment, serum chemistry panel, and urinalysis), physical examinations (complete and symptom directed), and EKGs.\nas §1\nAbbreviations: TEAE = treatment-emergent adverse event.\nN = number of subjects in the safety population; n = number of subjects in a sample.\nNotes: Each TEAE was counted only once for each subject within each System Organ Class and Preferred Term."}, "human P-gp": {"target": "human P-gp (Homo sapiens, UniProt P08183)", "sequence (P08183 whole entry)": "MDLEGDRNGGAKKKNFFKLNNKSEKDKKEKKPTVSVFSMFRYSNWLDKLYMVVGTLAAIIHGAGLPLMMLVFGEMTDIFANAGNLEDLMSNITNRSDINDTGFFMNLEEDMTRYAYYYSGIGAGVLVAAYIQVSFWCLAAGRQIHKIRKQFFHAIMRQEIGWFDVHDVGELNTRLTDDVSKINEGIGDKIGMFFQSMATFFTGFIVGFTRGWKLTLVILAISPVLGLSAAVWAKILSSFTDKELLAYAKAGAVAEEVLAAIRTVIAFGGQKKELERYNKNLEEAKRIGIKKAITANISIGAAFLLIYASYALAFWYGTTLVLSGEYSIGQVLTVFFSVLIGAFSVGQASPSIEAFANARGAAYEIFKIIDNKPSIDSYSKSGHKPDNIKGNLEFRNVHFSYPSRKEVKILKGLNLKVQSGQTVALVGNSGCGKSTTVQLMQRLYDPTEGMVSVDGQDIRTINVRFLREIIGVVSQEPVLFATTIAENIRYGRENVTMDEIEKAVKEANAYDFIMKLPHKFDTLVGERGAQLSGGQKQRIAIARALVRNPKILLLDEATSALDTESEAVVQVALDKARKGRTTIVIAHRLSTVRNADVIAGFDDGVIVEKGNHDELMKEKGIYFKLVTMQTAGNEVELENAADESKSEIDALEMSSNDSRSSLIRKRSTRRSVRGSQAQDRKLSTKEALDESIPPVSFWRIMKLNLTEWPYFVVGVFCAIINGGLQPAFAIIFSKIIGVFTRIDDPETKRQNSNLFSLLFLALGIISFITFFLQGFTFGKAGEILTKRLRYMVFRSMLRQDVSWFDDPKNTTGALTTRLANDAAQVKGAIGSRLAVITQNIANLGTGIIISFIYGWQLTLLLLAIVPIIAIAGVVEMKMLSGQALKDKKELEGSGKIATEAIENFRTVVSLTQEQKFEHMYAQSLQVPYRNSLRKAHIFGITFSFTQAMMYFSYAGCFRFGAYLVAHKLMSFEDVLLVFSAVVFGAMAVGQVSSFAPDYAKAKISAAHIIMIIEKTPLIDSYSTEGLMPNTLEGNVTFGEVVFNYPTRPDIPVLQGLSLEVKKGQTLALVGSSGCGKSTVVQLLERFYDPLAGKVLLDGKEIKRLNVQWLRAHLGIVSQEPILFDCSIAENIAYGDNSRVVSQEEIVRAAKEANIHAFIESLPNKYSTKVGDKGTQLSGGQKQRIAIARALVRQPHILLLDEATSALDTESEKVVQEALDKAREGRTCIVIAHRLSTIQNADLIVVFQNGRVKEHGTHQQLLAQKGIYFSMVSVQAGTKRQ", "test": "NC-152 transporter inhibition, P-gp", "assay_type": "in vitro ADME", "conditions": "in vitro cell test system", "from_the_text": "(§2) Abbreviations: ABC = ATP binding cassette; BCRP = breast cancer resistance protein; BSEP = bile salt export pump; CYP = cytochrome P450; MATE =\n(§3) multidrug and toxic compound extrusion; MDCK = Madin-Darby canine kidney; MDR = multidrug resistance protein; mRNA = messenger ribonucleic acid;\n(§4) OAT = organic anion transporter; OATP = organic anion transporter protein; OCT – organic cation transporter; OCTN = organic cation transporter novel; P-gp =\n(§5) P-glycoprotein; SLC = solute carrier."}, "human OATP1B1": {"target": "human OATP1B1 (Homo sapiens, UniProt Q9Y6L6)", "sequence (Q9Y6L6 whole entry, canonical isoform)": "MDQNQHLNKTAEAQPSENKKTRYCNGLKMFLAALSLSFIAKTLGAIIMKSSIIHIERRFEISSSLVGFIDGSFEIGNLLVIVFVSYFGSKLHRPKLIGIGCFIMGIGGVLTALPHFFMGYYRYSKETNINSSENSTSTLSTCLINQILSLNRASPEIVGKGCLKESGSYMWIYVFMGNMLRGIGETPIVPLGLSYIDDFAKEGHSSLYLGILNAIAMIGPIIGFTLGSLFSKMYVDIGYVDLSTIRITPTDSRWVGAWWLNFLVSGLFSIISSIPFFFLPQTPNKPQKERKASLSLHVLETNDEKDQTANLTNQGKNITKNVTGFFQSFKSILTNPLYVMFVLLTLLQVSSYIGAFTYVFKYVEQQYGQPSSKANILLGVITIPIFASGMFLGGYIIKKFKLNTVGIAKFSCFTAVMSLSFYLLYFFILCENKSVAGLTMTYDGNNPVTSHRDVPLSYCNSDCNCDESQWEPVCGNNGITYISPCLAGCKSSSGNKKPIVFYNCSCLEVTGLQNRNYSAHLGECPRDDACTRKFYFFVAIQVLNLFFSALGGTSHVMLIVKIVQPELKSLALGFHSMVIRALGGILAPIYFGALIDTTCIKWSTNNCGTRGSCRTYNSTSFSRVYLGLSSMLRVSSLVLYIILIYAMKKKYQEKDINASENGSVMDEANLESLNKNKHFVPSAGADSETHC", "test": "NC-152 transporter inhibition, OATP1B1", "assay_type": "in vitro ADME", "conditions": "in vitro cell test system", "from_the_text": "as §1\n(§6) Table S 4Summary of initial in vitro assessments […]\n(§7) whether rezafungin can induce CYP isoforms 1A2, 2B6, or 3A4. mRNA expression) of CYP1A2 and CYP2B6, and, in the case of […]\n(§8) Abbreviations: ABC = ATP binding cassette; BCRP = breast cancer resistance protein; BSEP = bile salt export pump; CYP = cytochrome P450; MATE = multidrug and toxic compound extrusion; MDCK = Madin-Darby canine kidney; MDR = multidrug resistance protein; mRNA = messenger ribonucleic acid; OAT = organic anion transporter; OATP = organic anion transporter protein; OCT – organic cation transporter; OCTN = organic cation transporter novel; P-gp = P-glycoprotein; SLC = solute carrier."}, "BSEP": {"target": "BSEP (Homo sapiens, UniProt O95342)", "sequence (O95342 whole entry)": "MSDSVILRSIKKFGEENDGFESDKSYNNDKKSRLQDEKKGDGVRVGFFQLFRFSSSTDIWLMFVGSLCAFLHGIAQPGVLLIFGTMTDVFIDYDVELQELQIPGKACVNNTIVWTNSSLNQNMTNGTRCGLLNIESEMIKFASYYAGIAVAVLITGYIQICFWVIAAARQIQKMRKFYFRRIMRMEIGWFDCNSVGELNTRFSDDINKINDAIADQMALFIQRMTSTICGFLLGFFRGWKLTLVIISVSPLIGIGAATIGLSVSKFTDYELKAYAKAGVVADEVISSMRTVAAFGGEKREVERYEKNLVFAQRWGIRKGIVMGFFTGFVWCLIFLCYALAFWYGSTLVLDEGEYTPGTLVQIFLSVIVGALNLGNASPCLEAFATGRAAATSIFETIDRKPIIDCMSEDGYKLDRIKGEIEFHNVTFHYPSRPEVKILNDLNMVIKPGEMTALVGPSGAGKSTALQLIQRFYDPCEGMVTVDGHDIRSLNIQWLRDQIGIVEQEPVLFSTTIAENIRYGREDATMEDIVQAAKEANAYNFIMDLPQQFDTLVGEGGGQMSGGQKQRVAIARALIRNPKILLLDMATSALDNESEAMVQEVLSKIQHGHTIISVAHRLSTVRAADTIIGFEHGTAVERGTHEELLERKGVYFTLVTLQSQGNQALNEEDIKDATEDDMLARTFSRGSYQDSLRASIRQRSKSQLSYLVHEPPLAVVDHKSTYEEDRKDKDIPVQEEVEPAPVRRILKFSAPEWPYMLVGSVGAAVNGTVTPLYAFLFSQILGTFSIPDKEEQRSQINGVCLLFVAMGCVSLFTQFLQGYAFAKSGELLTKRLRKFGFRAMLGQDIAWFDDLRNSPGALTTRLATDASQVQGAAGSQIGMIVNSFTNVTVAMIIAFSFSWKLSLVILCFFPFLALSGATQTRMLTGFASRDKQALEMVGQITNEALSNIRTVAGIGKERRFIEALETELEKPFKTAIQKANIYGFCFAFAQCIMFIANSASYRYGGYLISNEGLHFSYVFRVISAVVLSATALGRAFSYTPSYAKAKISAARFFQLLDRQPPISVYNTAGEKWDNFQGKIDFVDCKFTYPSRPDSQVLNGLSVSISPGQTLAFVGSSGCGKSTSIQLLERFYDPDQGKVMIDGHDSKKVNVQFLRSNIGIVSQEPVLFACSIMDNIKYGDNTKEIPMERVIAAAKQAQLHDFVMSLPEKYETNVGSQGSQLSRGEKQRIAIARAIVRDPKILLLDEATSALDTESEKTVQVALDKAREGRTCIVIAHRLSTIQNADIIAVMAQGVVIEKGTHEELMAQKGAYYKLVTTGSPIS", "test": "NC-152 BSEP inhibition in membrane vesicles", "assay_type": "in vitro ADME", "from_the_text": "as §1, §6, §7, §8"}, "OCTN2": {"target": "OCTN2 (Homo sapiens, UniProt O76082)", "sequence (O76082 whole entry)": "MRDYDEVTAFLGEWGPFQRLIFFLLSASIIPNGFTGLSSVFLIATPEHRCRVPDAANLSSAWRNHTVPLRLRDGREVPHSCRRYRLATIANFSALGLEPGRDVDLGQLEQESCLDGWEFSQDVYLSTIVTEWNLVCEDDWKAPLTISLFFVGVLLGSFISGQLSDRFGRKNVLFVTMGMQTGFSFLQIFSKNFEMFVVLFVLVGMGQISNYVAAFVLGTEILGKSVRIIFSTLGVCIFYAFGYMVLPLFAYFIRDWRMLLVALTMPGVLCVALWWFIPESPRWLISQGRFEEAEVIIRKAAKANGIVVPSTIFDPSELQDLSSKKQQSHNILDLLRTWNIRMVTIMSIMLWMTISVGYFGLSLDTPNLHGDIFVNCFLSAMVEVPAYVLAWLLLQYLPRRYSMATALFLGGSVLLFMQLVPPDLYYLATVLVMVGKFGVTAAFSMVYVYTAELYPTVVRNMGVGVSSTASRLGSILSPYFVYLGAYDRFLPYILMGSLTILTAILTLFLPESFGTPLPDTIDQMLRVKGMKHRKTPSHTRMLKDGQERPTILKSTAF", "test": "NC-160 substrate interaction, OCTN2", "assay_type": "in vitro ADME", "conditions": "uptake SLC transporter", "from_the_text": "as §1, §6, §7, §8"}, "CYP3A4 [3]": {"target": "T1, CYP3A4 (Homo sapiens, UniProt P08684)", "T1 sequence (P08684 whole entry)": "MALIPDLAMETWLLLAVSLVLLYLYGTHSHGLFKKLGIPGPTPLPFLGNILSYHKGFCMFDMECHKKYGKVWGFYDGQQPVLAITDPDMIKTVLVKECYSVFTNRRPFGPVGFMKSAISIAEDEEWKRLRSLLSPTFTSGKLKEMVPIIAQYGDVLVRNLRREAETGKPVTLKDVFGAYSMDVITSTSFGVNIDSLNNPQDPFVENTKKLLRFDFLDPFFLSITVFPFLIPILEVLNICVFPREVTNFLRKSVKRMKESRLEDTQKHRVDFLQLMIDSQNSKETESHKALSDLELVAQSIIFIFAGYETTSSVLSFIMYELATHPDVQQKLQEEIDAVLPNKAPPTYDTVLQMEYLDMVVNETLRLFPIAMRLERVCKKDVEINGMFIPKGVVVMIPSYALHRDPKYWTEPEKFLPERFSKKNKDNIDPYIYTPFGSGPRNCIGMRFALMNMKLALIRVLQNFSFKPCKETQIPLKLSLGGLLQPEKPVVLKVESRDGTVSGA", "from_the_text": "as §2, §3, §4, §5"}, "CYP1A2": {"target": "CYP1A2 (Homo sapiens, UniProt P05177)", "conditions": "human liver microsomes; 0.1 to 25 μM; NC-153", "from_the_text": "as §1, §6, §7, §8"}, "CYP2B6": {"target": "CYP2B6 (Homo sapiens, UniProt P20813)", "sequence (P20813 whole entry)": "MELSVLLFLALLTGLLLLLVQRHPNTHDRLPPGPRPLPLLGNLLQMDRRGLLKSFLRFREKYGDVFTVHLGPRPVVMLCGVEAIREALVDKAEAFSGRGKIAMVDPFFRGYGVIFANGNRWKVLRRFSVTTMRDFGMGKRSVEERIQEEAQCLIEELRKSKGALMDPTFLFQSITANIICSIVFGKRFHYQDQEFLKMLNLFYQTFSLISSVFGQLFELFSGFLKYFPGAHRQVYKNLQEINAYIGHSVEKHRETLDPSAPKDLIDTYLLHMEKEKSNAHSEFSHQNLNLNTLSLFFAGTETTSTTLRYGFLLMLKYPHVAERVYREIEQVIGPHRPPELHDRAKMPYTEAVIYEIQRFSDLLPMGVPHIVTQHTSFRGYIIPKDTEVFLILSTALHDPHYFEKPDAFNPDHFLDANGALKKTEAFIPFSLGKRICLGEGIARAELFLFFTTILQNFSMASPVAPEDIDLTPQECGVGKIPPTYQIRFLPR", "conditions": "human liver microsomes; 0.1 to 25 μM; NC-153", "from_the_text": "as §1, §6, §7, §8"}, "CYP3A4 [4]": {"target": "T1, CYP3A4", "conditions": "human liver microsomes; midazolam and testosterone as substrates; 0.1 to 25 μM; NC-153", "from_the_text": "as §1, §6, §7, §8"}}, "note": "Entries after “also recorded” stand apart in the source; their conditions may differ. Numbered stars: 1 amine (or outer) side, 2 acyl side, 3 side chain; on linkers, the order of the positions; unused ones are H or OH. Bridge positions count the residues as written; N and C are the ends. Square brackets hold non-standard residues; d marks the D form. Peptide text beside a SMILES is read from it. * marks the point of attachment. Orn(4R-OH,5R-OCH2CH2NMe3+) = C[N+](C)(C)CCO[C@@H](N[*:3])[C@H](O)C[C@H](N[*:1])C(=O)[*:2]; pTerphenylCO(4''-OnC5H11) = CCCCCOc1ccc(-c2ccc(-c3ccc(C(=O)*)cc3)cc2)cc1; hTyr(3S-OH,4S-OH) = N[C@H](C(=O)O)[C@H](O)[C@@H](O)c1ccc(O)cc1; Pro(3S-OH,4S-Me) = C[C@H]1CN[C@H](C(=O)O)[C@H]1O; Hyp = O=C(O)[C@@H]1C[C@@H](O)CN1"}
{"smiles": "CCCCCOc1ccc(-c2ccc(-c3ccc(C(=O)N[C@H]4C[C@@H](O)[C@@H](OCC[N+](C)(C)C)NC(=O)[C@@H]5[C@@H](O)[C@@H](C)CN5C(=O)[C@H]([C@@H](C)O)NC(=O)[C@H]([C@H](O)[C@@H](O)c5ccc(O)cc5)NC(=O)[C@@H]5C[C@@H](O)CN5C(=O)[C@H]([C@@H](C)O)NC4=O)cc3)cc2)cc1", "note": "[Rezafungin] ({pTerphenylCO(4''-OnC5H11)}-[Orn(4R-OH,5R-OCH2CH2NMe3+)]T[Hyp][hTyr(3S-OH,4S-OH)]T[Pro(3S-OH,4S-Me)]; lactam 1-C)", "values": [{"measurement": "serious TEAEs, deaths, discontinuations due to a TEAE", "setting": "[1]; Study 1", "result": "no serious TEAEs or deaths or discontinuations due to a TEAE"}, {"measurement": "tolerability", "setting": "[1]; once-weekly i.v. infusions, 600-mg loading dose followed by two 400-mg maintenance doses", "result": "generally well tolerated"}, {"measurement": "deaths or serious adverse events", "setting": "[2]; Study 2", "result": "no deaths or serious adverse events"}, {"measurement": "severe TEAE deemed by the investigator to be related to the drug", "setting": "[2]; Study 2, one subject each", "result": "abdominal pain"}, {"measurement": "tolerability", "setting": "[2]; once-weekly i.v. infusions, 400-mg loading dose followed by two 200-mg maintenance doses", "result": "generally well tolerated"}, {"measurement": "inhibitor of probe substrate transport mediated via P-gp", "setting": "human P-gp", "result": "determined to be an inhibitor; also recorded: could not be ruled out"}, {"measurement": "inhibitor of probe substrate transport mediated via OATP1B1", "setting": "human OATP1B1", "result": "determined to be an inhibitor"}, {"measurement": "inhibitor of probe substrate transport mediated via BSEP", "setting": "BSEP", "result": "not"}, {"measurement": "substrate of OCTN2", "setting": "OCTN2", "result": "not a substrate"}, {"measurement": "IC50", "setting": "CYP3A4 [3]", "result": "> 25", "unit": "µM"}, {"measurement": "time-dependent inhibitor of CYP1A2", "setting": "CYP1A2", "result": "not a time-dependent inhibitor"}, {"measurement": "time-dependent inhibitor of CYP2B6", "setting": "CYP2B6", "result": "not a time-dependent inhibitor"}, {"measurement": "time-dependent inhibitor of CYP3A4", "setting": "CYP3A4 [4]", "result": "not a time-dependent inhibitor"}]}
